Source: PubChem BioAssay AID2060329 (Molecular Pharmacology Branch, DTP, NCI, 2025)
“And” between values parts separate entries of the source, which are not always exact repeats. Equal entries are not always repeated.

Test system: MCF7 multi-cell spheroids with HUVEC/MSC, viability
Assay: Anticancer human tumor MCF7 cell line growth inhibition [IpAb];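 note: spheroids exposed to agents for seven days before readout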
Details: for viability, T/C: stronger effect = lower value; active = viability on the fitted dose curve at most 10% of control; inactive = the rest
Procedure, shortened: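 Combinations with ipatasertib or abemaciclib were tested on tumour spheroids holding HUVEC (25%) and MSC (15%) alongside 60% malignant cells. Top concentration was at or near clinical Cmax (10 microM if undefined), descending in half-log steps.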

[1] = curve of first compound, second compound 0.1 µM
[2] = curve of first compound, second compound 0.316 µM
[3] = curve of first compound, second compound 1 µM
[4] = curve of first compound, second compound 3.16 µM
[5] = curve of first compound, second compound 10 µM
[6] = second compound 0.1 µM, first compound 0.0316 µM
[7] = second compound 0.1 µM, first compound 0.1 µM
[8] = second compound 0.1 µM, first compound 0.316 µM
[9] = second compound 0.1 µM, first compound 1 µM
[10] = second compound 0.1 µM, first compound 3.16 µM
[11] = second compound 0.1 µM, first compound 10 µM
[12] = second compound 0.316 µM, first compound 0.0316 µM
[13] = second compound 0.316 µM, first compound 0.1 µM
[14] = second compound 0.316 µM, first compound 0.316 µM
[15] = second compound 0.316 µM, first compound 1 µM
[16] = second compound 0.316 µM, first compound 3.16 µM
[17] = second compound 0.316 µM, first compound 10 µM
[18] = second compound 1 µM, first compound 0.0316 µM
[19] = second compound 1 µM, first compound 0.1 µM
[20] = second compound 1 µM, first compound 0.316 µM
[21] = second compound 1 µM, first compound 1 µM
[22] = second compound 1 µM, first compound 3.16 µM
[23] = second compound 1 µM, first compound 10 µM
[24] = second compound 3.16 µM, first compound 0.0316 µM
[25] = second compound 3.16 µM, first compound 0.1 µM
[26] = second compound 3.16 µM, first compound 0.316 µM
[27] = second compound 3.16 µM, first compound 1 µM
[28] = second compound 3.16 µM, first compound 3.16 µM
[29] = second compound 3.16 µM, first compound 10 µM
[30] = second compound 10 µM, first compound 0.0316 µM
[31] = second compound 10 µM, first compound 0.1 µM
[32] = second compound 10 µM, first compound 0.316 µM
[33] = second compound 10 µM, first compound 1 µM
[34] = second compound 10 µM, first compound 3.16 µM
[35] = second compound 10 µM, first compound 10 µM

C=CCn1c(=O)c2cnc(Nc3ccc(N4CCN(C)CC4)cc3)nc2n1-c1cccc(C(C)(C)O)n1 + CC(C)NCC(C(=O)N1CCN(c2ncnc3c2C(C)CC3O)CC1)c1ccc(Cl)cc1
169 nM: IC50 [3]
367 nM: IC50 [2]
active: viability, T/C [29] 7.69% | viability, T/C [34] 8.49% | viability, T/C [35] 4.08%
543 nM: IC50 [1]
inactive: viability, T/C [6] 89.1% | viability, T/C [7] 99.2% | viability, T/C [8] 67.4% | viability, T/C [9] 31.8% | viability, T/C [10] 26.3% | viability, T/C [11] 33% | viability, T/C [12] 77.8% | viability, T/C [13] 80.9% | viability, T/C [14] 49.4% | viability, T/C [15] 37.4% | viability, T/C [16] 23.2% | viability, T/C [17] 27% | viability, T/C [18] 64.2% | viability, T/C [19] 61.6% | viability, T/C [20] 36.5% | viability, T/C [21] 20.9% | viability, T/C [22] 17.7% | viability, T/C [23] 16.4% | viability, T/C [24] 49.6% | viability, T/C [25] 38.2% | viability, T/C [26] 25.5% | viability, T/C [27] 14.6% | viability, T/C [28] 11.2% | viability, T/C [30] 42.4% | viability, T/C [31] 33.2% | viability, T/C [32] 19.4% | viability, T/C [33] 10.6%
< 31.6 nM: IC50 [4] | IC50 [5]

C=CC(=O)N1CCN(c2nc(=O)n(-c3c(C)ccnc3C(C)C)c3nc(-c4c(O)cccc4F)c(F)cc23)C(C)C1 (centres undefined)
inactive: viability, T/C (compound 0.0316 µM) 98.6% and 117% | viability, T/C (compound 0.1 µM) 106% | viability, T/C (compound 0.316 µM) 102% and 121% | viability, T/C (compound 1 µM) 103% and 107% | viability, T/C (compound 3.16 µM) 107% and 83.4% | viability, T/C (compound 10 µM) 71.2% and 76.7%
> 10000 nM: IC50 (curve of compound)

CC(C)n1nc(-c2ccc3oc(N)nc3c2)c2c(N)ncnc21 + CC(C)NCC(C(=O)N1CCN(c2ncnc3c2C(C)CC3O)CC1)c1ccc(Cl)cc1
13.9 nM: IC50 [1]
inactive: viability, T/C (second compound 0.1 µM, first compound 0.000316 µM) 88.7% | viability, T/C (second compound 0.1 µM, first compound 0.001 µM) 92.6% | viability, T/C (second compound 0.1 µM, first compound 0.00316 µM) 77.4% | viability, T/C (second compound 0.1 µM, first compound 0.01 µM) 58.9% | viability, T/C [6] 29.5% | viability, T/C [7] 13.1% | viability, T/C (second compound 0.316 µM, first compound 0.000316 µM) 82.5% | viability, T/C (second compound 0.316 µM, first compound 0.001 µM) 85.9% | viability, T/C (second compound 0.316 µM, first compound 0.00316 µM) 65.4% | viability, T/C (second compound 0.316 µM, first compound 0.01 µM) 50.3% | viability, T/C [12] 17.9% | viability, T/C (second compound 1 µM, first compound 0.000316 µM) 77.5% | viability, T/C (second compound 1 µM, first compound 0.001 µM) 64.8% | viability, T/C (second compound 1 µM, first compound 0.00316 µM) 48.4% | viability, T/C (second compound 1 µM, first compound 0.01 µM) 21.1% | viability, T/C (second compound 3.16 µM, first compound 0.000316 µM) 56.1% | viability, T/C (second compound 3.16 µM, first compound 0.001 µM) 42.6% | viability, T/C (second compound 3.16 µM, first compound 0.00316 µM) 36.5% | viability, T/C (second compound 3.16 µM, first compound 0.01 µM) 9.09% | viability, T/C (second compound 10 µM, first compound 0.000316 µM) 48.4% | viability, T/C (second compound 10 µM, first compound 0.001 µM) 45.5% | viability, T/C (second compound 10 µM, first compound 0.00316 µM) 17.5%
8.42 nM: IC50 [2]
active: viability, T/C [13] 9.55% | viability, T/C [18] 8.63% | viability, T/C [19] 6.29% | viability, T/C [24] 6.78% | viability, T/C [25] 7.35% | viability, T/C (second compound 10 µM, first compound 0.01 µM) 8.22% | viability, T/C [30] 8.47% | viability, T/C [31] 6.95%
2.59 nM: IC50 [3]
< 0.316 nM: IC50 [5]
0.594 nM: IC50 [4]

Cc1nc(NC(=O)N2CCCC2C(N)=O)sc1-c1ccnc(C(C)(C)C(F)(F)F)c1 (centres undefined)
1540 nM and 6660 nM: IC50 (curve of compound)
inactive: viability, T/C (compound 0.0316 µM) 74.8% and 93.7% | viability, T/C (compound 0.1 µM) 64.7% and 93.4% | viability, T/C (compound 0.316 µM) 65.9% and 78.8% | viability, T/C (compound 1 µM) 47.6% and 70.3% | viability, T/C (compound 3.16 µM) 48.1% and 63.4% | viability, T/C (compound 10 µM) 36.2% and 43%

C=CC(=O)N1CCN(c2nc(=O)n(-c3c(C)ccnc3C(C)C)c3nc(-c4c(O)cccc4F)c(F)cc23)C(C)C1 (centres undefined) + CC(C)NCC(C(=O)N1CCN(c2ncnc3c2C(C)CC3O)CC1)c1ccc(Cl)cc1
1060 nM: IC50 [4]
6940 nM: IC50 [2]
2710 nM: IC50 [3]
inactive: viability, T/C [6] 82.4% | viability, T/C [7] 99.8% | viability, T/C [8] 100% | viability, T/C [9] 90.8% | viability, T/C [10] 78.3% | viability, T/C [11] 44.5% | viability, T/C [12] 79.5% | viability, T/C [13] 87.3% | viability, T/C [14] 77.1% | viability, T/C [15] 73.3% | viability, T/C [16] 68.4% | viability, T/C [17] 41.6% | viability, T/C [18] 74.5% | viability, T/C [19] 73.3% | viability, T/C [20] 65.4% | viability, T/C [21] 65.8% | viability, T/C [22] 46.6% | viability, T/C [23] 32.8% | viability, T/C [24] 58.6% | viability, T/C [25] 53.4% | viability, T/C [26] 56.6% | viability, T/C [27] 50.2% | viability, T/C [28] 38.7% | viability, T/C [29] 22.6% | viability, T/C [30] 47.7% | viability, T/C [31] 41.3% | viability, T/C [32] 44% | viability, T/C [33] 36.3% | viability, T/C [34] 40.9% | viability, T/C [35] 22.6%
< 31.6 nM: IC50 [5]
8300 nM: IC50 [1]

CC1(C)CCC(CN2CCN(c3ccc(C(=O)NS(=O)(=O)c4ccc(NCC5CCOCC5)c([N+](=O)[O-])c4)c(Oc4cnc5[nH]ccc5c4)c3)CC2)=C(c2ccc(Cl)cc2)C1 + CC(C)NCC(C(=O)N1CCN(c2ncnc3c2C(C)CC3O)CC1)c1ccc(Cl)cc1
33.7 nM: IC50 [4]
< 31.6 nM: IC50 [5]
6000 nM: IC50 [1]
2510 nM: IC50 [3]
inactive: viability, T/C [6] 85% | viability, T/C [7] 83.3% | viability, T/C [8] 87.6% | viability, T/C [9] 84.2% | viability, T/C [10] 84.9% | viability, T/C [11] 22.2% | viability, T/C [12] 72.4% | viability, T/C [13] 74.9% | viability, T/C [14] 69.5% | viability, T/C [15] 72.1% | viability, T/C [16] 67.3% | viability, T/C [17] 11.3% | viability, T/C [18] 69.4% | viability, T/C [19] 64.9% | viability, T/C [20] 70.1% | viability, T/C [21] 56.1% | viability, T/C [22] 49.5% | viability, T/C [23] 10.9% | viability, T/C [24] 47.9% | viability, T/C [25] 51.6% | viability, T/C [26] 51.3% | viability, T/C [27] 39.7% | viability, T/C [28] 34.1% | viability, T/C [30] 39.3% | viability, T/C [31] 34.5% | viability, T/C [32] 32.1% | viability, T/C [33] 27.8% | viability, T/C [34] 29.7% | viability, T/C [35] 5.76%
4520 nM: IC50 [2]
active: viability, T/C [29] 9.03%
